Values joined by “and” are separate entries in the source; they are usually repeats but may differ in a detail not shown here. Equal entries are not always repeated.
Assays:
EpH-A6 cells = assay: tumor growth of EpH-A6 cells injected subcutaneously in nude mice; type: in vivo, mouse; parameters: Tumor weight, right flank / Tumor weight, left flank: unit not given here; conditions: for Tumor weight, left flank / Tumor weight, right flank: individual nude mice, F16 20 mg/kg intraperitoneally twice a day, 20 mg/kg
Description: Twenty nude mice of 8-10 weeks of age were injected subcutaneously with 10^6 EpH-A6 cells in the left and right flanks. Three days after the cell injection, a 20 mg/kg dose of F16 (40% DMSO/60% PBS) was injected intraperitoneally twice a day to a group of 10 mice, and an equivalent dose of vehicle to the remaining 10 mice (placebo mice). After 10 days of treatment, tumors were removed from all mice and weighted. Tumor tissue was used for FACS analysis, pathology, and some were stored at −70° C. until further processing.

EpH4-A6 cells = assay: anti-BrdU cytoblot assay (BrdU incorporation); type: cell-based, mouse
Description: In order to look for selective inhibitors of cell proliferation dependent on Neu, a chemical library was screened using a cytoblot assay. The ability of small molecules to inhibit cell proliferation at a final concentration of […] determined by the relative incorporation of BrdU into DNA in EpH4-A6 Neu-overexpressing and EpH4-EV control cells.
A modified version of a protocol previously described was used for the cytoblot assay (Stockwell et al. (1999) Chem Biol 6(2), 71-83). Briefly, for this cytoblot assay, 2,000 control (EpH4-EV) and Neu overexpressing (EpH4-A6) cells were seeded in 40 μL of growing medium in duplicate in each well of a white […] plate (Costar). 16,000 compounds from a chemical library (Chembridge) were transferred to each well to a final concentration of 10-15 μM. Plates were incubated at 37° C. with 5% CO2 for 36 hours. BrdU was then added to a final concentration of 20 μM and the cells were incubated at 37° C. with 5% CO2 for an additional 3 hours. Cells were then washed with PBS and fixed with 75% ethanol/25%TBS at 4° C. for 1 hour. DNA denaturation was achieved by incubation with 2M HCl/0.5% Tween-20 for 20 min, followed by neutralization with 2M NaOH in Hank's Balanced Salt Solution (HBSS). Cells were subsequently washed with HBSS, blocked with PBS/0.3% Tween-20/1% BSA (PSTB), and incubated with 0.5 μg/mL of mouse anti-BrdU antibody (PharMingen) and 1:5,000 dilution of anti-mouse IgG coupled to HRP in PBSTB for 1 hour at room temperature. Finally the cells were washed with PBS and 20 μL of 1:1 mix of the enhanced chemiluminescence reagent (Pierce) was then added to each well of a plate. In every case addition of reagents was done using a mutli-drop 384 liquid dispenser (Labsystems) and the washes using a plate washer (Bio-Tek Instruments). Chemiluminescent signal from each plate was detected by autoradiograph and multilabel counter Victor^2 (Wallac) in order to quantitate results. A control cytoblot using inhibitory anti-Neu monoclonal antibodies was performed following the same procedure with the exception that anti-Neu antibody was added to the medium at a final concentration of 20 μg/mL.
The potency of these 55 small molecules was then evaluated at lower concentrations, i.e., at 10 μM and 1 μM using the cytoblot assay described above. […] These six compounds are referred to as E20 (ID 141525); F12 (ID 120590); F16 (ID 274873); H10 (ID 120670); J6 (ID 120856); N12 (ID 215015), and their structure is shown in FIGS. 2 A-F, respectively. […] These two compounds are referred to as L4 (ID 121113); B15(ID217496) […]. FIGS. 2 A-H also show proton NMR spectra of each of the molecules that confirmed their identity. […]

[1] = system: EpH4-EV and EpH4-A6 cells; assay: superoxide levels by dihydroethidium flow cytometry; type: cell-based, mouse; conditions: 3 μM F16, FIG. 11
Description: Besides ATP synthesis, the mitochondria plays different roles in cell physiology, among them control of the redox state of cells. Changes in the level of superoxide anion as an indicator of alterations in reactive oxygen intermediates generation by mitochondria of cells treated with F16 was examined by flow cytometry. Changes in the levels of intracellular oxidants were investigated using the fluorescent probe dihydroethidium (DHE) (Molecular Probes). Superoxide anion can oxidate DHE to ethidium bromide (EtBr) which binds to DNA. […] EpH4-EV and EpH4-A6 cells were grown in the absence or in the presence of 3 μM F16 for 15, 24, 48 and 72 hr. cells were resuspended and diluted to 10^6 cells/mL. DHE was added to the cell suspension to a final 2 μM in each case. Cells were incubated at 37° C. for 15 min and immediately analysed using flow cytometry.

[2] = system: β-catenin-initiated mouse breast tumor cell lines
[3] = total body weight of mice during treatment; type: in vivo, mouse; conditions: relative to weight at the beginning of the experiment; 20 mg/kg twice a day
Description: The total weight of the mice was also monitored every other day during the course of the treatment with F16.

[4] = system: Neu, PKB/Akt and MAP kinase in EpH4-A6 cells; assay: Western blot of Neu-dependent signaling; type: cell-based, mouse; conditions: 3 μM F16, FIG. 12
Description: In parallel to the characterization of the effect of F16 on mitochondria homeostasis the effect of F16 on cell signaling was investigated. Control and Neu-overexpressing EpH4-A6 cells were left untreated or treated with 3 μM F16 for 24 and 48 hr. Whole cell lysates were prepared as described above. Samples were immnoblotted with antibodies against Neu, PKB, MAPK, as well as antibodies that react with the phosphorylated forms of the proteins, as described above. Samples were probed with anti-β-actin as loading control, also as described above.

Structure (SMILES): C[n+]1ccc(/C=C/c2c[nH]c3ccccc23)cc1.[I-] [F16]
- Tumor weight, left flank (EpH-A6 cells; Experiment #1, 10 days): 0.1131 and 0.0293 and 0.1365 and 0.021 and 0.1463 and 0.1127 and 0.1186 and 0.097 and 0.1163 and 0.1174
- Tumor weight, right flank (EpH-A6 cells; Experiment #1, 10 days): 0.214 and 0.0666 and 0.1984 and 0.1597 and 0.1645 and 0.1127 and 0.2314 and 0.2412 and 0.2408 and 0.2174
- Tumor weight, left flank (EpH-A6 cells; Experiment #2, 10 days): 0.054 and 0.4294 and 0.3368 and 0.041 and 0.2375 and 0.2087 and 0.1809 and 0.0454 and 0.1417 and 0
- Tumor weight, right flank (EpH-A6 cells; Experiment #2, 10 days): 0.022 and 0.632 and 0.2078 and 0.1798 and 0.1063 and 0.2621 and 0.1315 and 0.1971 and 0.3451 and 0
- difference in tumor size relative to the control mice (EpH-A6 cells; F16 20 mg/kg twice a day, 10 days): 2-3 fold
- cells undergoing mitosis in tumors (pathology) (EpH-A6 cells; at least some F16 treated tumors compared to untreated tumors): decrease in number of cells undergoing mitosis
- score in anti-BrdU cytoblot (EpH4-A6 cells; EpH4-A6 cells at 10 μM): positive
- concentration up to which anti-proliferative activity is retained (EpH4-A6 cells; EpH4-A6 cells, concentrations from 100 to 0.01 μM, FIG. 3): 100 nM
- concentration at which F16 is effective / partially inhibits BrdU incorporation (as low as) (EpH4-A6 cells; EpH4-A6 cells, cytoblot): 10 nM
- concentration at which anti-proliferative activity was shown (as low as) (EpH4-A6 cells; EpH4-A6 cells, cytoblot): 1 µM
- superoxide level (ethidium/DNA fluorescence) [1]: increase in the ethidium/DNA fluorescence
- selectivity for β-catenin-initiated mouse breast tumor cell lines [2]: to some extent selectivity
- average total body weight loss [3]: 3.3%
- phosphotyrosine content of Neu, phosphorylated PKB/Akt, and phosphorylated MAP kinase [4]: decreased
